According to the NIST ThermoML archive (doi:10.1016/j.fluid.2015.05.016):
± gives the expanded uncertainty stated by the source. One block for each molecule: values may come before it.

Key:
[1] = 298.15 K; 101.33 kPa; Liquid; Vibrating tube method
[2] = molar heat capacity at constant pressure; details: 298.15 K; 101.33 kPa; Liquid; Large sample (1 g) DSC
[3] = molar heat capacity at constant pressure; xn = mol fraction of the nth substance listed; details: 298.15 K, 100 kPa, Liquid, Large sample (1 g) DSC
[4] = xn = mol fraction of the nth substance listed; details: 298.15 K, 100 kPa, Liquid, Vibrating tube method

mass density [1]: 998.505 ± 0.068 kg/m3
Structure (SMILES): CCC(O)CO (stereo not drawn) [1,2-butanediol]

mass density [1]: 966.678 ± 3.2 kg/m3 | molar heat capacity at constant pressure [2]: 266.29 ± 4.6 J/K/mol
Structure (SMILES): CCCC(O)CO (stereo not drawn) [1,2-pentanediol]

molar heat capacity at constant pressure ([3]; x1 = 0.073): 94.77 ± 1.5 J/K/mol | molar heat capacity at constant pressure ([3]; x1 = 0.1773): 114.15 ± 1.8 J/K/mol | molar heat capacity at constant pressure ([3]; x1 = 0.31): 138.7 ± 2.1 J/K/mol | molar heat capacity at constant pressure ([3]; x1 = 0.3868): 152.56 ± 2.4 J/K/mol | molar heat capacity at constant pressure ([3]; x1 = 0.5238): 178.04 ± 2.8 J/K/mol | molar heat capacity at constant pressure ([3]; x1 = 0.6142): 194.86 ± 3 J/K/mol | molar heat capacity at constant pressure ([3]; x1 = 0.7047): 211.81 ± 3.3 J/K/mol | molar heat capacity at constant pressure ([3]; x1 = 0.8127): 231.91 ± 3.6 J/K/mol | molar heat capacity at constant pressure ([3]; x1 = 0.914): 250.63 ± 3.9 J/K/mol | molar heat capacity at constant pressure ([3]; x1 = 1): 266.29 ± 4.1 J/K/mol | mass density ([4]; x1 = 0.073): 832.04 ± 0.31 kg/m3 | mass density ([4]; x1 = 0.31): 886.031 ± 0.67 kg/m3 | mass density ([4]; x1 = 0.5238): 929.073 ± 1.2 kg/m3 | mass density ([4]; x1 = 0.6142): 931.181 ± 1.5 kg/m3 | mass density ([4]; x1 = 0.7047): 946.883 ± 1.8 kg/m3 | mass density ([4]; x1 = 0.8127): 950.977 ± 2.3 kg/m3 | mass density ([4]; x1 = 0.914): 961.834 ± 2.8 kg/m3 | mass density ([4]; x1 = 1): 966.678 ± 3.2 kg/m3
Structure (SMILES): CCCC(O)CO (stereo not drawn) [1,2-pentanediol] + CO

mass density [1]: 1032.55 ± 0.11 kg/m3 | molar heat capacity at constant pressure [2]: 191.71 ± 3.2 J/K/mol
Structure (SMILES): CC(O)CO (stereo not drawn) [1,2-propanediol]

molar heat capacity at constant pressure ([3]; x1 = 0.0743): 89.47 ± 1.4 J/K/mol | molar heat capacity at constant pressure ([3]; x1 = 0.2305): 106.48 ± 1.6 J/K/mol | molar heat capacity at constant pressure ([3]; x1 = 0.3354): 118.08 ± 1.8 J/K/mol | molar heat capacity at constant pressure ([3]; x1 = 0.4104): 126.35 ± 2 J/K/mol | molar heat capacity at constant pressure ([3]; x1 = 0.51): 137.4 ± 2.1 J/K/mol | molar heat capacity at constant pressure ([3]; x1 = 0.6498): 152.77 ± 2.4 J/K/mol | molar heat capacity at constant pressure ([3]; x1 = 0.7273): 161.34 ± 2.5 J/K/mol | molar heat capacity at constant pressure ([3]; x1 = 0.7821): 167.69 ± 2.6 J/K/mol | molar heat capacity at constant pressure ([3]; x1 = 0.8985): 180.45 ± 2.8 J/K/mol | molar heat capacity at constant pressure ([3]; x1 = 1): 191.71 ± 3 J/K/mol
Structure (SMILES): CC(O)CO (stereo not drawn) [1,2-propanediol] + CO

mass density [1]: 786.585 ± 0.24 kg/m3 | molar heat capacity at constant pressure [2]: 81.37 ± 1.4 J/K/mol
Structure (SMILES): CO [methanol]

molar heat capacity at constant pressure ([3]; x2 = 0): 81.37 ± 1.3 J/K/mol
Structure (SMILES): CO [methanol] + CC(O)CO

molar heat capacity at constant pressure ([3]; x2 = 0): 81.37 ± 1.3 J/K/mol | mass density ([4]; x2 = 0): 786.585 ± 0.24 kg/m3
Structure (SMILES): CO [methanol] + CCCC(O)CO
